EPA's ToxValDB 9.5 (doi:10.2903/j.efsa.2015.4194)
Converted amounts (≈) assume the structure as drawn.

Columns and labels:
Apis mellifera = settings: acute, duration: 48 hours, mortality
Lepomis macrochirus = settings: acute; duration: 96 hours; mortality
Bibionidae = settings: chronic/long-term; duration: 28 days
Canidae = settings: oral, Dog Other
Tagia sp. = settings: acute; duration: 14 days; mortality
Colinus virginianus = settings: oral
Daphnia magna = settings: chronic/long-term; duration: 21 days; reproduction

CC1(c2ccc(Oc3ccccc3)cc2)OC(=O)N(Nc2ccccc2)C1=O (centres undefined) [Famoxadone]
LC50 (Oncorhynchus mykiss; acute, duration: 96 hours, mortality): 0.011 µg/mL (≈ 0.0294 µM)
NOEC (Oncorhynchus mykiss; chronic/long-term, duration: 90 days, growth): 0.014 mg/L
LD50 (Apis mellifera; dermal): > 25 µg/piece
LD50 (Apis mellifera; oral, unspecified): > 63 µg/piece
LC50 (Lepomis macrochirus): 0.013 µg/mL (≈ 0.0347 µM)
NOEC (Bibionidae): 0.01 mg/L
LD50 (Rattus norvegicus; acute, mortality): > 5000 mg/kg
NOAEL (Rattus norvegicus; developmental, development): 11.3 mg/kg-day
NOAEL (Canidae; chronic, duration: 1 years, ophthalmoscopic examination): 1.2 mg/kg-day
NOAEL (Canidae; subchronic, duration: 90 days, clinical signs): 10 mg/kg-day
LC50 (Tagia sp.): 470 mg/kg
LD50 (Colinus virginianus; acute, mortality): > 2250 mg/kg-day
NOEC (Colinus virginianus; short-term, diet): 5620 mg/kg-day
NOEC (Daphnia magna): 0.0037 mg/L
